{"source": "patent US20180051069A1", "about": "“COMPOSITIONS AND METHODS FOR TREATING ALLERGIC INFLAMMATION” (THE GENERAL HOSPITAL CORPORATION, priority 2015, published 2018)", "origin": "cited, not measured here", "key": {"[1]": {"tested_on": "alpha- or beta-mannosidase"}, "[2]": {"tested_on": "alpha- or beta-galactosidase"}, "[3]": {"target": "alpha-glucosidase amyloglucosidase (Aspergillus niger, UniProt P69328)", "sequence (P69328 25-640)": "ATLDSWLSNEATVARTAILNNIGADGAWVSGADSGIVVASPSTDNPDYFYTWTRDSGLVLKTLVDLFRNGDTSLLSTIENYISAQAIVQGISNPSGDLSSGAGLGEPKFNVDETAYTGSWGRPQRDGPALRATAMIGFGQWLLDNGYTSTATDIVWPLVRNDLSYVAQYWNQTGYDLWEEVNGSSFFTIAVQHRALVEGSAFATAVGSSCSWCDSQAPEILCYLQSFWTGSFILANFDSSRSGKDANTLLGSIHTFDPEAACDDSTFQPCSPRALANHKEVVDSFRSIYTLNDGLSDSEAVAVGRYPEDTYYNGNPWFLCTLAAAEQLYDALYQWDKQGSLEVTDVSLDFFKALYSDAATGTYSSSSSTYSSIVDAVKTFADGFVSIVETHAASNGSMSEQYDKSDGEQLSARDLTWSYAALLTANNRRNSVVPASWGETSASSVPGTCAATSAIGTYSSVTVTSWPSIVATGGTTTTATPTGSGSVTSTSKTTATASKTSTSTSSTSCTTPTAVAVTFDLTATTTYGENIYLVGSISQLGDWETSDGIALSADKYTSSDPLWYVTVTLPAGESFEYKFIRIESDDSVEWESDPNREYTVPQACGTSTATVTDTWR", "details": "read-out: 50% inhibition"}, "[4]": {"tested_on": "beta-glucosidase"}, "[5]": {"tested_on": "alpha-glucosidase"}, "[6]": {"tested_on": "cultured mammalian cells"}, "[7]": {"tested_on": "rat liver mannosidase I"}, "[8]": {"tested_on": "mannosidase I"}, "[9]": {"tested_on": "rat epididymal α-mannosidase"}, "[10]": {"target": "T1, Golgi mannosidase II (Homo sapiens, UniProt Q16706)", "T1 sequence (Q16706 1-1144)": "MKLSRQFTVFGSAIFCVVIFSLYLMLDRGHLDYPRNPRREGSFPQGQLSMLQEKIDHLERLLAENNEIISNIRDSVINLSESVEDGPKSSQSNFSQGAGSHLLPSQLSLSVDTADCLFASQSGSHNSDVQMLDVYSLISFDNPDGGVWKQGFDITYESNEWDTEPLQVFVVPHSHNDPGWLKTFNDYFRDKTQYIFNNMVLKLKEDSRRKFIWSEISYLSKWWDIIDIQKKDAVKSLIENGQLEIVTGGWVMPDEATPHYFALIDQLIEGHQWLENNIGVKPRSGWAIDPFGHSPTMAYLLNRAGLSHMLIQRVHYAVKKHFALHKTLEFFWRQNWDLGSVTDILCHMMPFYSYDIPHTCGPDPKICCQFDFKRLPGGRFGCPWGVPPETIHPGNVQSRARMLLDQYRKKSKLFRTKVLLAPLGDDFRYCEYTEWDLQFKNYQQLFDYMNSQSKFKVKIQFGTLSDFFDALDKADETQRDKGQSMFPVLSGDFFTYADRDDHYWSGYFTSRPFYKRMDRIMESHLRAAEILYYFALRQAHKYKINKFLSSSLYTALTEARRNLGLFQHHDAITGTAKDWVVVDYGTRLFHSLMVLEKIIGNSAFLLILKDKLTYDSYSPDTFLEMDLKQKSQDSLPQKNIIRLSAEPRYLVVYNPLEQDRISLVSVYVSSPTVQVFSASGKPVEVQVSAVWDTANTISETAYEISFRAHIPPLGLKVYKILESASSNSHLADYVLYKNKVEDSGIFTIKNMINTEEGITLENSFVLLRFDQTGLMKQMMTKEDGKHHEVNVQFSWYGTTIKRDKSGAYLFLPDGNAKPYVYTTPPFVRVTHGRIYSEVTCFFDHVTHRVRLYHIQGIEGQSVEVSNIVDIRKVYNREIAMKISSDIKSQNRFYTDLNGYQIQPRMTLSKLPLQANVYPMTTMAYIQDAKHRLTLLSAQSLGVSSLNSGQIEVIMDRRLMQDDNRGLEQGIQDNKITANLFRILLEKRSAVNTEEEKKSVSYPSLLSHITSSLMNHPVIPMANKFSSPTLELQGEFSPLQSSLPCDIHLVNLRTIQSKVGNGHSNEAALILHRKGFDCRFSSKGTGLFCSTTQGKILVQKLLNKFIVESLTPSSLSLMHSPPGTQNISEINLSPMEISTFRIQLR"}}, "data": [{"smiles": "OC[C@@H]1[C@@H](O)[C@H](O)[C@H]2[C@@H](O)CCN21", "note": "[Australine]", "values": [{"measurement": "inhibition of alpha- or beta-mannosidase", "setting": "[1]", "value": "does not inhibit"}, {"measurement": "inhibition of alpha- or beta-galactosidase", "setting": "[2]", "value": "does not inhibit"}, {"measurement": "IC50", "setting": "[3]", "value": 5.8, "unit": "µM"}, {"measurement": "inhibition of beta-glucosidase", "setting": "[4]", "value": "does not inhibit"}]}, {"smiles": "O[C@H]1[C@H](O)[C@@H](O)CN2CC[C@H](O)[C@H]12", "note": "[Castanospermine]", "values": [{"measurement": "inhibition of alpha-glucosidase activities", "setting": "[5]", "value": "inhibits"}]}, {"smiles": "OC[C@H]1NC[C@@H](O)[C@@H](O)[C@@H]1O", "note": "[Deoxymannojirimycin]", "values": [{"measurement": "effect on synthesis of N-linked oligosaccharides", "setting": "[6]; intact cells", "value": "blocked the synthesis of complex types of N-linked oligosaccharides"}, {"measurement": "inhibition of rat liver mannosidase I", "setting": "[7]", "value": "inhibitor"}]}, {"smiles": "O=C1N[C@@H]2[C@@H](O)[C@@H](O)[C@H](O)[C@@H](CO)N2C1=O", "note": "[Kifunensine]", "values": [{"measurement": "effect on mannosidase I", "setting": "[8]", "value": "inhibits"}, {"measurement": "concentration causing complete shift of N-linked oligosaccharides from complex chains to Man9(GlcNAc)2 structures", "setting": "[6]; added to cultured mammalian cells", "value": "≥ 1", "unit": "µg/mL"}]}, {"smiles": "CS[C@@H]1[C@@H](N)[C@@H](O)[C@@H](O)[C@H]1O", "note": "[Mannostatin A]", "values": [{"measurement": "inhibition of rat epididymal α-mannosidase", "setting": "[9]", "value": "reported to be an inhibitor"}]}, {"smiles": "O[C@H]1[C@H]2[C@H](O)CCCN2C[C@H]1O", "note": "[Swainsonine]", "values": [{"measurement": "effect on mannosidase I", "setting": "[8]", "value": "no effect"}, {"measurement": "inhibition of Golgi mannosidase II", "setting": "[10]", "value": "potent inhibitor"}]}]}
